In patent US20220132847A1, “CINNOLINIUM COMPOUNDS FOR USE IN A METHOD OF CONTROLLING UNWANTED PLANT GROWTH” (SYNGENTA CROP PROTECTION AG, priority 2019, published 2022):
Structures can show the parent of a compound that is named as a salt.

Columns and labels:
Assay in all cases: Post-emergence efficacy, glasshouse
Format in all cases: in vivo
[1] = system: Chenopodium album (CHEAL); conditions: Chenopodium album, post-emergence, 312 h, evaluated after 13 days, 100=total damage to plant, 0=no damage to plant, read-out: Control of weed species after post-emergence application, CHEAL; for pest or weed control at 500 g/ha: Application Rate 500 g/Ha; for pest or weed control at 1000 g/ha: Application Rate 1000 g/Ha
Description: (§1) Seeds of a variety of test species were sown in standard soil in pots. After cultivation for 14 days (post-emergence) under controlled conditions in a glasshouse (at 24/16° C., day/night; 14 hours light; 65% humidity), the plants were sprayed with an aqueous spray solution derived from the dissolution of the technical active ingredient formula (I) in a small amount of acetone and a special solvent and emulsifier mixture referred to as IF50 (11.12% Emulsogen EL360™+44.44% N-methylpyrrolidone+44.44% Dowanol DPM glycol ether), to create a 50 g/l solution which was then diluted to required concentration using 0.25% or 1% Empicol ESC70 (Sodium lauryl ether sulphate)+1% ammonium sulphate in water as diluent.
(§2) The test plants were then grown in a glasshouse under controlled conditions (at 24/16° C., day/night; 14 hours light; 65% humidity) and watered twice daily. After 13 days the test was evaluated (100=total damage to plant; 0=no damage to plant).
(§3) Ipomoea hederacea (IPOHE), Euphorbia heterophylla (EPHHL), Chenopodium album (CHEAL), Amaranthus palmeri (AMAPA), Lolium perenne (LOLPE), Digitaria sanguinalis (DIGSA), Eleusine indica (ELEIN), Echinochloa crus-galli (ECHCG), Setaria faberi (SETFA)

[2] = system: Setaria faberi (SETFA); conditions: Setaria faberi, post-emergence, 312 h, evaluated after 13 days, 100=total damage to plant, 0=no damage to plant, read-out: Control of weed species after post-emergence application, SETFA; for pest or weed control at 500 g/ha: Application Rate 500 g/Ha; for pest or weed control at 1000 g/ha: Application Rate 1000 g/Ha
Description: as §1, §2, §3

[3] = system: Lolium perenne (LOLPE); conditions: Lolium perenne, post-emergence, 312 h, evaluated after 13 days, 100=total damage to plant, 0=no damage to plant, read-out: Control of weed species after post-emergence application, LOLPE; for pest or weed control at 500 g/ha: Application Rate 500 g/Ha; for pest or weed control at 1000 g/ha: Application Rate 1000 g/Ha
Description: as §1, §2, §3

[4] = system: Eleusine indica (ELEIN); conditions: Eleusine indica, post-emergence, 312 h, evaluated after 13 days, 100=total damage to plant, 0=no damage to plant, read-out: Control of weed species after post-emergence application, ELEIN; for pest or weed control at 500 g/ha: Application Rate 500 g/Ha; for pest or weed control at 1000 g/ha: Application Rate 1000 g/Ha
Description: as §1, §2, §3

[5] = system: Echinochloa crus-galli (ECHCG); conditions: Echinochloa crus-galli, post-emergence, 312 h, evaluated after 13 days, 100=total damage to plant, 0=no damage to plant, read-out: Control of weed species after post-emergence application, ECHCG; for pest or weed control at 500 g/ha: Application Rate 500 g/Ha; for pest or weed control at 1000 g/ha: Application Rate 1000 g/Ha
Description: as §1, §2, §3

[6] = system: Digitaria sanguinalis (DIGSA); conditions: Digitaria sanguinalis, post-emergence, 312 h, evaluated after 13 days, 100=total damage to plant, 0=no damage to plant, read-out: Control of weed species after post-emergence application, DIGSA; for pest or weed control at 500 g/ha: Application Rate 500 g/Ha; for pest or weed control at 1000 g/ha: Application Rate 1000 g/Ha
Description: as §1, §2, §3

[7] = system: Euphorbia heterophylla (EPHHL); conditions: Euphorbia heterophylla, post-emergence, 312 h, evaluated after 13 days, 100=total damage to plant, 0=no damage to plant, read-out: Control of weed species after post-emergence application, EPHHL; for pest or weed control at 500 g/ha: Application Rate 500 g/Ha; for pest or weed control at 1000 g/ha: Application Rate 1000 g/Ha
Description: as §1, §2, §3

[8] = system: Ipomoea hederacea (IPOHE); conditions: Ipomoea hederacea, post-emergence, 312 h, evaluated after 13 days, 100=total damage to plant, 0=no damage to plant, read-out: Control of weed species after post-emergence application, IPOHE; for pest or weed control at 500 g/ha: Application Rate 500 g/Ha; for pest or weed control at 1000 g/ha: Application Rate 1000 g/Ha
Description: as §1, §2, §3

[9] = system: Amaranthus palmeri (AMAPA); conditions: Amaranthus palmeri, post-emergence, 312 h, evaluated after 13 days, 100=total damage to plant, 0=no damage to plant, read-out: Control of weed species after post-emergence application, AMAPA; for pest or weed control at 500 g/ha: Application Rate 500 g/Ha; for pest or weed control at 1000 g/ha: Application Rate 1000 g/Ha
Description: as §1, §2, §3

Compound | pest or weed control at 500 g/ha [1] [%] | pest or weed control at 500 g/ha [2] [%] | pest or weed control at 500 g/ha [3] [%] | pest or weed control at 500 g/ha [4] [%] | pest or weed control at 500 g/ha [5] [%] | pest or weed control at 500 g/ha [6] [%] | pest or weed control at 500 g/ha [7] [%] | pest or weed control at 500 g/ha [8] [%] | pest or weed control at 500 g/ha [9] [%] | pest or weed control at 1000 g/ha [1] [%] | pest or weed control at 1000 g/ha [2] [%] | pest or weed control at 1000 g/ha [3] [%] | pest or weed control at 1000 g/ha [4] [%] | pest or weed control at 1000 g/ha [5] [%] | pest or weed control at 1000 g/ha [6] [%] | pest or weed control at 1000 g/ha [7] [%] | pest or weed control at 1000 g/ha [8] [%] | pest or weed control at 1000 g/ha [9] [%]
CC(C)OP(=O)([O-])c1c[n+](C(C)C)nc2ccccc12 [Compound A76, isopropoxy-(2-isopropylcinnolin-2-ium-4-yl)phosphinate] | 90 | 80 | 50 | 100 | 70 | 80 | 100 | 90 | 100 |  |  |  |  |  |  |  |  | 
C[n+]1cc(C(=O)O)c2ccccc2n1 [Compound A3, 2-methylcinnolin-2-ium-4-carboxylic acid methyl sulfate] |  |  |  |  |  |  |  |  |  | 20 | 10 | 20 | 60 | 30 | 50 | 30 | 20 | 20
CN(C)S(=O)(=O)[N-]C(=O)c1c[n+](C)nc2ccccc12 [Compound A11] |  |  |  |  |  |  |  |  |  | 60 | 50 | 20 | 30 | 50 | 40 | 70 | 60 | 40
C[n+]1cc(C(=O)[N-]S(=O)(=O)CCC(F)(F)F)c2ccccc2n1 [Compound A43] |  |  |  |  |  |  |  |  |  | 30 | 50 | 20 | 90 | 30 | 70 | 90 | 80 | 60
COCC[n+]1cc(C(=O)[N-]S(C)(=O)=O)c2ccccc2n1 [Compound A24] |  |  |  |  |  |  |  |  |  | 70 | 50 | 20 | 50 | 50 | 40 | 40 | 60 | 70
CCCC[n+]1cc(C(=O)[N-]S(C)(=O)=O)c2ccccc2n1 [Compound A41] |  |  |  |  |  |  |  |  |  | 60 | 40 | 30 | 30 | 20 | 40 | 100 | 80 | 80
C[n+]1cc(CCC(=O)O)c2ccccc2n1 [Compound A56, 3-(2-methylcinnolin-2-ium-4-yl)propanoic acid 2,2,2-trifluoroacetate] | 90 | 60 | 10 | 70 | 70 | 100 | 40 | 30 | 100 |  |  |  |  |  |  |  |  | 
C[n+]1cc(C(=O)[N-]S(=O)(=O)C2CC2)c2ccccc2n1 [Compound A12] |  |  |  |  |  |  |  |  |  | 60 | 60 | 40 | 30 | 30 | 20 | 70 | 70 | 60
C[C@@H](NC(=O)c1c[n+](C)nc2ccccc12)C(=O)O [Compound A9, (2R)-2-[(2-methylcinnolin-2-ium-4-carbonyl)amino]propanoic acid 2,2,2-trifluoroacetate] |  |  |  |  |  |  |  |  |  | 50 | 30 | 10 | 40 | 20 | 40 | 50 | 50 | 50
CC[n+]1cc(C(=O)[N-]S(C)(=O)=O)c2ccccc2n1 [Compound A22, (2-ethylcinnolin-2-ium-4-carbonyl)-methylsulfonyl-azanide] |  |  |  |  |  |  |  |  |  | 70 | 70 | 60 | 70 | 50 | 80 | 60 | 90 | 70
COP(=O)([O-])c1c[n+](CCO)nc2ccccc12 [Compound A68, [2-(2-hydroxyethyl)cinnolin-2-ium-4-yl]-methoxy-phosphinate] |  |  |  |  |  |  |  |  |  | 100 | 90 | 40 | 100 | 60 | 100 | 100 | 100 | 100
CCOP(=O)(O)c1c[n+](CCO)nc2ccccc12 [Compound A69] | 90 | 90 | 40 | 90 | 70 | 100 | 100 | 90 | 100 |  |  |  |  |  |  |  |  | 
C[n+]1cc(P(C)(=O)O)c2ccccc2n1 [Compound A7] |  |  |  |  |  |  |  |  |  | 100 | 70 | 40 | 80 | 70 |  | 90 | 70 | 
